US7915282B2, “C2-phenyl-substituted cyclic keto-enols used as pesticides and herbicides” (Bayer Aktiengesellschaft, priority 2000, dated 2011)

Columns and labels:
Assay type in all cases: in vivo
[1] = system: green rice leaf hopper (Nephotettix cincticeps); assay: Nephotettix test; settings: active compound concentration of 1000 ppm; after 6 days; rice seedlings dipped
Procedure: [table] To produce a suitable preparation of active compound, 1 part by weight of active compound is mixed with the stated amounts of solvent and emulsifier, and the concentrate is diluted with emulsifier-containing, water to the desired concentration. Rice seedlings (Oryza sativa) are treated by being dipped into the preparation of active compound of the desired concentrated and are populated with the green rice leaf hopper (Nephotettix cincticeps) while the leaves are still moist. After the desired period of time, the kill in % is determined. 100% means that all leaf hoppers have been killed; 0% means that none of the leaf hoppers have been killed.

[2] = system: larvae of the mustard beetle (Phaedon cochleariae); assay: Phaedon larvae test; settings: active compound concentration of 1000 ppm; after 7 days; cabbage leaves dipped
Procedure: (§1) [table] To produce a suitable preparation of active compound, 1 part by weight of active compound is mixed with the stated amounts of solvent and emulsifier, and the concentrate is diluted with emulsifier-containing water to the desired concentration. Cabbage leaves (Brassica oleracea) are treated by being dipped into the preparation of active compound of the desired concentration and are populated with larvae of the mustard beetle (Phaedon cochleariae) while the leaves are still moist. After the desired period of time, the kill in % is determined. 100% means that all beetle larvae have been killed; 0% means that none of the beetle larvae have been killed.

[3] = system: Digitaria; assay: Post-emergence test; settings: after three weeks
Procedure: (§2) [table] To produce a suitable preparation of active compound, 1 part by weight of active compound is mixed with the stated amount of solvent, the stated amount of emulsifier is added and the concentrate is diluted with water to the desired concentration. Test plants of a height of 5-15 cm are sprayed with the preparation of active compound such that the particular amounts of active compound desired are applied per unit area. The concentration of the spray liquor is chosen such that the particular amount of active compound desired is applied in 1000 l of water/ha. After three weeks, the degree of damage to the plants is rated in % damage in comparison to the development of the untreated control. The figures denote: [table]

[4] = system: Galium; assay: Post-emergence test; settings: 125 g ai/ha, after three weeks
Procedure: as §2

[5] = system: Lolium; assay: Post-emergence test; settings: after three weeks
Procedure: as §2

[6] = system: Oilseed rape; assay: Post-emergence test; settings: 125 g ai/ha, after three weeks
Procedure: as §2

[7] = system: Setaria; assay: Post-emergence test; settings: after three weeks
Procedure: as §2

[8] = system: Sorghum; assay: Post-emergence test; settings: after three weeks
Procedure: as §2

[9] = system: Sugar beet; assay: Post-emergence test; settings: after three weeks
Procedure: as §2

[10] = system: Soya bean; assay: Post-emergence test; settings: 125 g ai/ha, after three weeks
Procedure: as §2

[11] = system: Alopecurus; assay: Pre-emergence test; settings: after three weeks
Procedure: (§3) [table] To produce a suitable preparation of active compound, 1 part by weight of active compound is mixed with the stated amount of solvent, the stated amount emulsifier is added and the concentrate is diluted with water to the desired concentration. Seeds of the test plants are sown in normal soil. After about 24 hours, the soil is sprayed with the preparation of active compound such that the particular amounts of active compound desired are applied per unit area. The concentration of the spray liquor is chosen such that the particular amounts of active compound desired are applied in 1000 l of water/ha. After three weeks, the degree of damage to the plants is rated in % damage in comparison to the development of the untreated controls. The figures denote: [table]

[12] = system: Chenopodium; assay: Pre-emergence test; settings: 60 g ai/ha, after three weeks
Procedure: as §3

[13] = system: Echinochloa; assay: Pre-emergence test; settings: 60 g ai/ha, after three weeks
Procedure: as §3

[14] = system: Lolium; assay: Pre-emergence test; settings: after three weeks
Procedure: as §3

[15] = system: Setaria; assay: Pre-emergence test; settings: after three weeks
Procedure: as §3

[16] = system: Soya bean; assay: Pre-emergence test; settings: after three weeks
Procedure: as §3

[17] = system: Wheat; assay: Pre-emergence test; settings: 60 g ai/ha, after three weeks
Procedure: as §3

[18] = system: caterpillars of the owlet moth (Plutella xylostella); assay: Plutella test; settings: active compound concentration of 1000 ppm; after 7 days; cabbage leaves dipped
Procedure: as §1, with “caterpillars” for “larvae”, “owlet moth (Plutella xylostella)” for “mustard beetle (Phaedon cochleariae)”, “caterpillars” for “beetle larvae”

[19] = system: Cotton; assay: Post-emergence test; settings: after three weeks
Procedure: as §2

[20] = system: Echinochloa; assay: Post-emergence test; settings: after three weeks
Procedure: as §2

[21] = system: Avena fatua; assay: Pre-emergence test; settings: after three weeks
Procedure: as §3

[22] = system: Bromus; assay: Pre-emergence test; settings: after three weeks
Procedure: as §3

[23] = system: Maize; assay: Pre-emergence test; settings: after three weeks
Procedure: as §3

[24] = system: Sugar beet; assay: Pre-emergence test; settings: after three weeks
Procedure: as §3

[25] = system: greenhouse red spider mite (Tetranychus urticae); assay: Tetranychus test (OP-resistant/dip treatment); settings: active compound concentration of 1000 ppm; after 7 days; infested bean plants dipped
Procedure: [table] To produce a suitable preparation of active compound, 1 part by weight of active compound is mixed with the stated amounts of solvent and emulsifier, and the concentrate is diluted with emulsifier-containing water to the desired concentration. Bean plants (Phaseolus vulgaris) which are heavily infested by all stages of the greenhouse red spider mite (Tetranychus urticae) are dipped into a preparation of active compound of the desired concentration. After the desired period of time, the effect in % is determined. 100% means that all spider mites have been killed; 0% means that none of the spider mites have been killed.

[26] = system: Alopecurus; assay: Post-emergence test; settings: after three weeks
Procedure: as §2

[27] = system: Avena fatua; assay: Post-emergence test; settings: after three weeks
Procedure: as §2

[28] = system: Ipomoea; assay: Post-emergence test; settings: 125 g ai/ha, after three weeks
Procedure: as §2

[29] = system: Digitaria; assay: Pre-emergence test; settings: 125 g ai/ha, after three weeks
Procedure: as §3

[30] = system: Veronica; assay: Pre-emergence test; settings: 125 g ai/ha, after three weeks
Procedure: as §3

[31] = system: caterpillars of the army worm (Spodoptera frugiperda); assay: Spodoptera frugiperda test; settings: active compound concentration of 1000 ppm; after 7 days; cabbage leaves dipped
Procedure: as §1, with “caterpillars” for “larvae”, “army worm (Spodoptera frugiperda)” for “mustard beetle (Phaedon cochleariae)”, “caterpillars” for “beetle larvae”

[32] = system: peach aphids (Myzus persicae); assay: Myzus test; settings: active compound concentration of 1000 ppm; after 6 days; infested cabbage leaves dipped
Procedure: as §1, with “oleracea) which are heavily infested by the peach aphids (Myzus persicae)” for “oleracea)”, “concentration.” for “concentration and are populated with larvae of the mustard beetle (Phaedon cochleariae) while the leaves are still moist.”, “aphids” for “beetle larvae”

[33] = system: white fly Bemisia tabaci; assay: Bemisia test; settings: active compound concentration of 1000 ppm; after 10 days; infested cotton plants dipped
Procedure: [table] To produce a suitable preparation of active compound, 1 part by weight of active compound is mixed with the stated amounts of solvent and emulsifier, and the concentrate is diluted with emulsifier-containing water to the desired concentrations. Cotton plants (Gossypium hirsutum) which are infested by eggs, larvae and pupae of the white fly Bemisia tabaci are dipped into a preparation of active compound of the desired concentration. After the desired period of time, the kill in % is determined. 100% means that all animals have been killed; 0% means that none of the animals have been killed.

[34] = system: Wheat; assay: Post-emergence test; settings: after three weeks
Procedure: as §2

[35] = system: Cassia; assay: Post-emergence test; settings: 125 g ai/ha, after three weeks
Procedure: as §2

[36] = system: Solanum; assay: Post-emergence test; settings: 125 g ai/ha, after three weeks
Procedure: as §2

[37] = system: Viola; assay: Post-emergence test; settings: 125 g ai/ha, after three weeks
Procedure: as §2

CCc1cc(C)c(C2=C(O)C3(CCC(C)CC3)NC2=O)c(CC)c1 (stereo not shown) [Example I-1-a-2]
kill in % [1]: 100% | kill in % [2]: 100% | % damage Digitaria ([3]; 125 g ai/ha): 80% | % damage Galium [4]: 80% | % damage Lolium ([5]; 125 g ai/ha): 70% | % damage Oilseed rape [6]: 0% | % damage Setaria ([7]; 125 g ai/ha): 95% | % damage Sorghum ([8]; 125 g ai/ha): 80% | % damage Sugar beet ([9]; 125 g ai/ha): 0%

CCc1cc(CC)c(C2=C(O)C3(CCC(C)CC3)NC2=O)c(CC)c1 (stereo not shown) [Example I-1-a-5]
% damage Digitaria ([3]; 125 g ai/ha): 90% | % damage Galium [4]: 80% | % damage Setaria ([7]; 125 g ai/ha): 100% | % damage Sorghum ([8]; 125 g ai/ha): 95% | % damage Soya bean [10]: 10% | % damage Alopecurus ([11]; 60 g ai/ha): 100% | % damage Chenopodium [12]: 70% | % damage Echinochloa [13]: 100% | % damage Lolium ([14]; 60 g ai/ha): 100% | % damage Setaria ([15]; 60 g ai/ha): 100% | % damage Soya bean ([16]; 60 g ai/ha): 0% | % damage Wheat [17]: 0%

CCc1cc(C)cc(C)c1C1=C(O)C(C)(C)NC1=O [Example I-1-a-8]
kill in % [1]: 100% | kill in % [18]: 100% | % damage Cotton ([19]; 60 g ai/ha): 0% | % damage Digitaria ([3]; 60 g ai/ha): 95% | % damage Echinochloa ([20]; 60 g ai/ha): 100% | % damage Setaria ([7]; 60 g ai/ha): 100% | % damage Sorghum ([8]; 60 g ai/ha): 95% | % damage Sugar beet ([9]; 60 g ai/ha): 10% | % damage Alopecurus ([11]; 60 g ai/ha): 100% | % damage Avena fatua ([21]; 60 g ai/ha): 90% | % damage Bromus ([22]; 60 g ai/ha): 100% | % damage Lolium ([14]; 60 g ai/ha): 100% | % damage Maize ([23]; 60 g ai/ha): 10% | % damage Setaria ([15]; 60 g ai/ha): 100% | % damage Soya bean ([16]; 60 g ai/ha): 0% | % damage Sugar beet ([24]; 60 g ai/ha): 0% | % damage Wheat [17]: 0%

C#Cc1cc(C)c(C2=C(O)C3(CCC(OC)CC3)NC2=O)c(C)c1 (stereo not shown) [Example I-1-a-21]
kill in % [2]: 100% | kill in % [25]: 100% | % damage Alopecurus ([26]; 125 g ai/ha): 100% | % damage Avena fatua ([27]; 125 g ai/ha): 90% | % damage Digitaria ([3]; 125 g ai/ha): 100% | % damage Ipomoea [28]: 70% | % damage Lolium ([5]; 125 g ai/ha): 95% | % damage Setaria ([7]; 125 g ai/ha): 99% | % damage Sugar beet ([9]; 125 g ai/ha): 0% | % damage Alopecurus ([11]; 125 g ai/ha): 100% | % damage Digitaria [29]: 100% | % damage Lolium ([14]; 125 g ai/ha): 100% | % damage Setaria ([15]; 125 g ai/ha): 100% | % damage Soya bean ([16]; 125 g ai/ha): 0% | % damage Sugar beet ([24]; 125 g ai/ha): 0% | % damage Veronica [30]: 100%

CCc1cc(C)cc(C)c1C1=C(O)C2(CCCCC2)OC1=O [Example I-2-a-3]
kill in % [2]: 100% | kill in % [31]: 100%

CCc1cc(C)cc(C)c1C1=C(O)C2(CCC(OC)CC2)OC1=O (stereo not shown) [Example I-2-a-4]
kill in % [32]: 100% | kill in % [1]: 100% | kill in % [25]: 100% | kill in % [33]: 100% | % damage Alopecurus ([26]; 60 g ai/ha): 95% | % damage Avena fatua ([27]; 60 g ai/ha): 80% | % damage Cotton ([19]; 60 g ai/ha): 0% | % damage Lolium ([5]; 60 g ai/ha): 95% | % damage Sorghum ([8]; 60 g ai/ha): 80% | % damage Wheat ([34]; 60 g ai/ha): 0% | % damage Alopecurus ([11]; 125 g ai/ha): 100% | % damage Avena fatua ([21]; 125 g ai/ha): 80% | % damage Bromus ([22]; 125 g ai/ha): 70% | % damage Lolium ([14]; 125 g ai/ha): 100% | % damage Maize ([23]; 125 g ai/ha): 5% | % damage Setaria ([15]; 125 g ai/ha): 100% | % damage Soya bean ([16]; 125 g ai/ha): 0% | % damage Sugar beet ([24]; 125 g ai/ha): 0%

CCc1cc(C)cc(C)c1C1=C(OC(=O)C(C)(C)C)C2(CCC(OC)CC2)OC1=O (stereo not shown) [Example I-2-b-10]
kill in % [25]: 100% | kill in % [33]: 100% | % damage Cassia [35]: 95% | % damage Lolium ([5]; 125 g ai/ha): 80% | % damage Solanum [36]: 80% | % damage Viola [37]: 90% | % damage Wheat ([34]; 125 g ai/ha): 10%

CCc1cc(C)cc(C)c1-c1c(O)c(C)c(-c2ccc(F)cc2)oc1=O [Example I-4-a-1]
kill in % [32]: 100% | kill in % [1]: 100% | kill in % [2]: 100% | kill in % [18]: 100% | kill in % [25]: 100% | % damage Cotton ([19]; 125 g ai/ha): 0% | % damage Digitaria ([3]; 125 g ai/ha): 100% | % damage Echinochloa ([20]; 125 g ai/ha): 90% | % damage Setaria ([7]; 125 g ai/ha): 95% | % damage Sorghum ([8]; 125 g ai/ha): 90% | % damage Sugar beet ([9]; 125 g ai/ha): 0% | % damage Wheat ([34]; 125 g ai/ha): 20% | % damage Alopecurus ([11]; 125 g ai/ha): 100% | % damage Digitaria [29]: 100% | % damage Lolium ([14]; 125 g ai/ha): 100% | % damage Setaria ([15]; 125 g ai/ha): 100% | % damage Soya bean ([16]; 125 g ai/ha): 0% | % damage Sugar beet ([24]; 125 g ai/ha): 0% | % damage Veronica [30]: 95%
